Assay results reported in patent publication US4176184A, “Imidazoisoquinoline-diones and salts thereof” (Boehringer Ingelheim GmbH, priority 1977, dated 1979).
Where a name gives a salt, the structure may show the parent alone. Read-outs that look alike come from different tables or passages of the source.

Legend:
[1] = system: arterial blood pressure and dp/dt max. (left ventricle); experiment: Cardiotonic and blood pressure effects in anesthetized cats; assay type: in vivo, cat; conditions: 2 mg/kg intravenously; for Change in blood pressure (first value of the pair printed with a slash): first of two values; for Change in blood pressure (second value of the pair printed with a slash): second of two values; for change in vivo at 2 mg/kg: Felis catus, iv, dp/dt max., index of contractility, read-out: Increase in dp/dt
Description: 1. Cardiotonic and blood pressure effects
Cats of both sexes with a body weight of 2 to 4 kg were anesthetized by intraperitoneal injection of 30 mgm/kg of sodium pentobarbital. The arterial blood pressure was measured by a Statham pressure transducer (P23 Dc) from the aorta abdominalis via a PVA-Catheter, which was inserted through the right arteria femoralis. The ventricle pressure was measured by a cathetertip manometer (type MILLAR PC-350), which was introduced into the left ventricle via the right arteria carotis. The indices of contractility dp/dt max. were obtained by a differentiating amplifier. The arterial blood pressure and dp/dt max. were continuously recorded by direct-writer. The test compounds were injected intravenously at 2 mg/kg.

Acute toxicity in mice = conditions: mouse, in vivo, dose at which 50% of the animals died
[2] = system: chloroform-induced ventricular fibrillation; experiment: Antiarrhythmic effect against chloroform-induced ventricular fibrillation in mice; assay type: in vivo; conditions: Mus musculus, 1 min, male mice, ventricular fibrillation prevented in 50% of animals
Description: 3. Antiarrhythmic effect against chloroform-induced ventricular fibrillation in mice
On placing a mouse into a chloroform-saturated atmosphere, the animal becomes anesthetized after 40 sec., the spontaneous respiration stops, and after 20 sec. more, gasping respiration sets in.
Immediately after the gasping respiration has ceased, the mouse is taken out of the chloroform atmosphere, the thorax is opened, and the heart is quickly exposed to allow inspection of the heart movement. For 1 minute after opening the thorax, spontaneous ventricular fibrillation occurs in nearly all the animals or can be induced by touching the heart with tweezers.
Pre-treatment with antiarrhythmic compounds reduces the number of animals which show fibrillation in a dose-dependent way. The dose which reduces the number of animals having fibrillations by 50% (ED50) is calculated by means of dose-response curves and the standard deviation is determined [MILLER, L. C. and TAINTER, M. L., Proc. Soc. Exp. Biol. Med. 57, 261 (1944)].
The tests were performed on male mice, body weight 20-25 gm. Each dose was tested on 10 animals.
The dose was determined, at which after i.v. and p.o. administration one minute before starting the test, the ventricular fibrillation was prevented in 50% of the animals.

[3] = system: isolated electrically stimulated left auricle of the guinea pig; experiment: Effect on the effective refractory period of the isolated electrically stimulated left auricle of the guinea pig; conditions: Cavia porcellus; Tyrode's solution, 37° C.; cumulative dosing; graphically determined from dose response curves; read-out: EC50 (concentration which reduces the maximum stimulation frequency by 50%)
Description: 2. Effect on the effective refractory period of the isolated electrically stimulated left auricle of the guinea pig
Guinea pigs of both sexes were killed by a blow on the neck. After opening the thorax, the heart was quickly removed and transferred into a Tyrode's solution (37° C.). The auricles were separated from the ventricles along the Annulus fibrosus, and only the left auricles were used. Electrical stimulation was performed by a Grass stimulator, S4G, with square wave impulses of 1 millisecond duration and a stimulation voltage of 12 V. The auricles were suspended in Tyrode's solution at 37° C. containing 136.8 mVal NaCl, 2.68 mVal KCL, 0.2625 mVal MgCl2, 0.417 mVal NaH2 PO4, 11.9 mVal NaHCO3, 1.8 mVal CaCl, and 3 gm of glucose perliter. The solution was continuously aerated with O2 /CO2 (98%/2%). The isometric contractions were measured with a force displacement transducer and recorded on a Grass polygraph (P5). The number of the contractions was counted out and compared with the frequency indicated at the stimulator.
The maximum stimulation frequency was determined by increasing the stimulation rate every 10 seconds by 1 Hz. The maximum stimulation frequency was measured in preliminary tests by determining the average value. During the intervals of 5 minutes each between the measurements, the stimulation rate was 0.5 Hz.
After the determination of the average value the test compound was added to the Tyrode's solution and the stimulation rate was maintained at 0.5 Hz. During the first 5 minutes the inotropic effect of the compound was observed. Measurements were performed every 5 and 10 minutes after addition of the test compound. The average value resulting from the two tests (value at 5 minutes and 10 minutes, respectively) was taken as the maximum stimulation frequency after addition of the test compound. At first small doses were given, and after determination of the maximum stimulation frequency the dose was increased cumulatively and the maximum stimulation frequency for that dose was measured.
The maximum stimulation frequency is measured by increasing the stimulation rate. When the interval between two stimuli is shortened, a stimulation rate is reached at which every second stimulation falls into the refractory period of the foregoing contraction and will not be answered with a contraction. So, the maximum stimulation frequency is a measure of the effective refractory period. Compounds which reduce the maximum stimulation frequency, prolong the refractory period.
From the dose response curves the concentrations which reduce the maximum stimulation frequency by 50%, were graphically determined: […]

[4] = po, read-out: Toxicity (LD50) p.o.
[5] = iv, i.v. one minute before test, read-out: ED50 i.v.
[6] = po, p.o. one minute before test, read-out: ED50 p.o.

Row | SMILES | Duration [1] [min] | Change in blood pressure (first value of the pair printed with a slash) [1] [mm Hg] | Change in blood pressure (second value of the pair printed with a slash) [1] [mm Hg] | LD50 (Acute toxicity in mice; [4]) [mg/kg] | change in vivo at 2 mg/kg [1] [%] | ED50 [2, 5] [mg/kg] | ED50 [2, 6] [mg/kg] | EC50 [3] [µg/mL] | LD50 (Acute toxicity in mice; ip, read-out: Toxicity (LD50) i.p.) [mg/kg]
1 | COc1ccc(-c2nc3ccc4c(c3[nH]2)C(=O)NC(=O)C4(C)C)c(OC)c1 [A, 7,7-Dimethyl-2-(2,4-dimethoxy-phenyl)-5H,7H-imidazo[4,5-h]isoquinoline-4,6-dione hydrochloride] | > 24 | -49 | -48 |  |  |  |  |  | 
2 | COc1cc(S(C)(=O)=O)ccc1-c1nc2ccc3c(c2[nH]1)C(=O)NC(=O)C3(C)C [B, 7,7-Dimethyl-2-(2-methoxy-4-methylsulfonyl-phenyl)-5H,7H-imidazo[4,5-h]isoquinoline-4,6-dione] | > 56 | -52 | -80 |  |  |  |  |  | 
3 | CC1(C)C(=O)NC(=O)c2c1ccc1[nH]c(CCc3ccccc3)nc21 [C] | > 20 | -40 | -50 |  |  |  |  |  | 
4 | COc1ccccc1-c1nc2ccc3c(c2[nH]1)C(=O)NC(=O)C3(C)C [Compound E, 7,7-Dimethyl-2-(2-methoxy-phenyl)-5H,7H-imidazo[4,5-h]isoquinoline-4,6-dione hydrochloride] | 12 | -46 | -63 |  |  |  |  |  | 
5 | CC1(C)C(=O)NC(=O)c2c1ccc1nc(Cc3ccccc3)[nH]c21 [D, 7,7-Dimethyl-2-benzyl-5H,7H-imidazo[4,5-h]isoquinoline-4,6-dione] | > 57 | -67 | -63 | > 300 | 110 |  |  |  | 
6 | CC1(C)C(=O)NC(=O)c2c1ccc1nc(C3CCCCC3)[nH]c21 [F] | > 42 | -23 | -40 | > 300 |  |  |  |  | 
7 | CC1(C)C(=O)NC(=O)c2c1ccc1nc(-c3ccc(Cl)cc3)[nH]c21 [G, 7,7-Dimethyl-2-(4-chloro-phenyl)-5H,7H-imidazo[4,5-h]isoquinoline-4,6-dione hydrochloride] | 9 | -40 | -30 |  |  |  |  |  | 
8 | CSc1ccc(-c2nc3ccc4c(c3[nH]2)C(=O)NC(=O)C4(C)C)cc1 [H, 7,7-Dimethyl-2-(4-methylmercapto-phenyl)-5H,7H-imidazo[4,5-h]isoquinoline-4,6-dione] | > 12 | -45 | -45 |  |  |  |  |  | 
9 | COc1ccc(-c2nc3ccc4c(c3[nH]2)C(=O)NC(=O)C4(C)C)cc1 [I, 7,7-Dimethyl-2-(4-methoxy-phenyl)-5H,7H-imidazo[4,5-h]isoquinoline-4,6-dione hydrochloride] | > 19 | -33 | -46 |  |  |  |  |  | 
10 | CC1(C)C(=O)NC(=O)c2c1ccc1nc(-c3ccc(O)cc3)[nH]c21 [J, 7,7-Dimethyl-2-(4-hydroxy-phenyl)-5H,7H-imidazo[4,5-h]isoquinoline-4,6-dione hydrochloride] | > 29 | -47 | -58 |  |  |  |  |  | 
11 | COc1ccc(S(C)(=O)=O)cc1-c1nc2ccc3c(c2[nH]1)C(=O)NC(=O)C3(C)C [K, 7,7-Dimethyl-2-(2-methoxy-5-methylsulfonyl-phenyl)-5H,7H-imidazo[4,5-h]isoquinoline-4,6-dione] | > 107 | -70 | -67 | > 300 | 157 |  |  |  | 
12 | COc1ccc([S+](C)[O-])cc1-c1nc2ccc3c(c2[nH]1)C(=O)NC(=O)C3(C)C (centres unmarked) [L, 7,7-Dimethyl-2-(2-methoxy-5-methylsulfinyl-phenyl)-5H,7H-imidazo[4,6-h]isoquinoline-4,6-dione hydrochloride] | > 70 | -42 | -53 |  |  |  |  |  | 
13 | CC1(C)C(=O)NC(=O)c2c1ccc1nc(C3CC3)[nH]c21 [M, hydrochloride] | > 55 | -41 | -49 |  | 108 |  |  |  | 
14 | CCN(CC)CCN1C(=O)c2c(ccc3nc(-c4ccccc4)[nH]c23)C(C)(C)C1=O [N, 7,7-Dimethyl-2-phenyl-5-(2-diethylamino-ethyl)-5H,7H-imidazo[4,5-h]isoquinoline-4,6-dione dihydrochloride] |  |  |  |  |  | 2.4 | 21.2 | 1.8 | 
15 | CCN(CC)CCCN1C(=O)c2c(ccc3nc(-c4ccccc4)[nH]c23)C(C)(C)C1=O [O, 7,7-Dimethyl-2-phenyl-5-(3-diethylamino-propyl)-5H,7H-imidazo[4,5-h]isoquinoline-4,6-dione dihydrochloride] |  |  |  | 92 |  | 6.4 | 29 | 5 | 61
16 | CC1(C)C(=O)N(CCCN2CCCCC2)C(=O)c2c1ccc1nc(-c3ccccc3)[nH]c21 [P, 7,7-Dimethyl-2-phenyl-5-(3-piperidino-propyl)-5H,7H-imidazo[4,5-h]isoquinoline-4,6-dione dihydrochloride] |  |  |  |  |  | 10.5 | 130 | 6.7 | 
17 | CN(C)CCN1C(=O)c2c(ccc3nc(-c4ccccc4)[nH]c23)C(C)(C)C1=O [Q, 7,7-Dimethyl-2-phenyl-5-(2-dimethylamino-ethyl)-5H,7H-imidazo[4,5-h]isoquinoline-4,6-dione-dihydrochloride] |  |  |  |  |  | 6.1 | 23.5 | 4.8 | 
